Laboratory results taken from publication PMC9763021, “Comprehensive Assessment of Biomolecular Interactions of Morpholine-Based Mixed Ligand Cu(II) and Zn(II) Complexes of 2,2′-Bipyridine as Potential Anticancer and SARS-CoV-2 Agents: A Synergistic Experimental and Structure-Based Virtual Screening” (Bioinorganic Chemistry and Applications, 2022).

System: ethidium bromide bound DNA (CT-DNA)
Assay: Ethidium bromide-DNA fluorescence quenching (emission titration)
Assay type: binding, calf thymus
Settings: for Scatchard analysis KSA / Scatchard analysis n / LWB method KLB: DNA; for Kass (DNA), SV method II / KSV (DNA), SV method I: EB-DNA; for KSV (DNA), SV method I: 610 nm; for Kapp: KEB = 10^7 M^−1 at 50 μM EB; for Kq (DNA), SV method I: Kq=KSV/τ0, τ0 = 10^−8 S; for LWB method KLB: Lineweaver–Burk; for P (DNA), ratio of fluorescence quantum efficiency: intercept of F/F0 vs 1/[DNA]; for n (DNA), SV method II: number of binding sites; for ∆Gb° (DNA), SV method II: –RT lnKass, 298 K
Description: The experiment was performed in the 200 to 800 nm region. This is supporting evidence for the complexes' manner of deoxyribonucleic acid binding. When DNA (200 μM) was present or absent, we carefully monitored the intensity variations between 610 nm and 510 nm during the initial emission and excitation of EB [6, 28, 37]. Similarly, emission titrations for BSA interaction with different concentrations between 2.5 μM and 25 μM for all substances were conducted in a Tris-HCl buffer solution (pH: 7.4) between the regions of 300 nm and 400 nm.
Emission titration is a more sensitive approach to examining the binding tendency between chemical substances and biomolecules. The emission measurements are extensively supported to scrutinize the interacting modes between compounds and deoxyribonucleic acid. In the presence of deoxyribonucleic acid (240 μM) in a Tris-HCl buffer solution (pH: 7.2) at room temperature, none of the test compounds emitted fluorescence. The titrations were also executed with the EB molecule, which is also a comparatively low fluorescence emission in Tris-HCl buffer solution (pH: 7.2) in the free state. […] In the investigation, the addition of sample concentrations (0–240 μM) to the solution of DNA-EB results in a notable reduction in the emission intensity at 610 nm (Figure 5 and Table 4). As a result of intense intercalation, the complexes displace the EB in the DNA-EB adduct, causing the emission intensity to drop. The photoelectron shift from the DNA's guanine base to the excited states may be the cause of the frequency of quenching in the emission of chemicals by DNA. Therefore, EB can be utilized as a fluorescent probing agent in the competitive binding experiment.
K SV is denoted as Stern–Volmer binding constant; Kass is represented as association binding constant; Kapp is represented as apparent binding constant, Kapp=KEB[EB]/[compound]=500/[compound], KEB = 10^7 M^−1 at the concentration of 50 μM EB; Gibb's free energy change ΔGb°=–RT lnKass; Kq is represented as bimolecular quenching rate constant/Stern–Volmer dynamic quenching rate constant (Kq=KSV/τ0), average life time of the biomolecular quenching in the absence of a quencher (τ0) = 10^−8 S; Gibb's free energy change ΔGb°=–RT lnKass (where R = […], T = 298 K); KLB is represented as Lineweaver–Burk (LWB) binding constant; KSA is represented as Scatchard association binding constant; Kapp is denoted as apparent binding constant; n is the number of binding sites; P is a ratio of fluorescence quantum efficiency of DNA bound and free complex (P=ɸb/ɸf), which is obtained as intercept from plot F/F0 vs. 1/[DNA], Error limit is ± 2.5% (P < 0.025).(12) Fcorr=Fobs×e^Aex×dex+Aem×dem/2=Fobs×e^Aex+Aem/2, where Fcorr and Fobs are represented as the IFE-corrected fluorescence and observed (uncorrected) emission intensities, respectively. dex and dem are denoted as the cuvette path lengths in the excitation and emission directions, respectively. Aex and Aem are represented as the change in absorbance at the excitation and fluorescence wavelengths, respectively.(13) F0 /F=1+KSVQ=1+Kq τ0, where [Q] is represented as the sample concentration, the emission intensities F0 and F of DNA/BSA in the absence and presence of the quencher (sample), respectively.(14) F0 /F−1=F0−F/F=KSVQlogF0−F/F=logKass+n logQ, (15) KEBEB=Kappcompound, (16) 1/F0−F=1/F0 KLBQ+1/F0 , (17) γ/CF =KSCn−γ, where γ = [(F0 − F)/F0], and CF is denoted as the concentration of sample alone.
The linear regression correlation coefficient (R^2) values for all substances further confirmed that there is no found inner filter effect due to these values are greater than 0.95. Moreover, the following Stern–Volmer equations (13)–(15) were employed to determine the KSV, Kq, and n values (Table 4). The KSV findings were measured from the slope to intercept ratio of the linear regression plot of F0/F vs. [Q] by the SV method I (Figure S22). […]

SMILES: [Cu+2].[O-]c1ccccc1N=Cc1ccc(N2CCOCC2)cc1.[O-]c1ccccc1N=Cc1ccc(N2CCOCC2)cc1.c1ccc(-c2ccccn2)nc1 [(1a), [Cu(L)2(bpy)]]
- Scatchard analysis KSA: 33151 M⁻¹
- Scatchard analysis n: 1.033
- Kass (DNA), SV method II: 50564 M⁻¹
- KSV (DNA), SV method I: 52474 M⁻¹
- Kapp: 9.894e+06 M⁻¹
- Kq (DNA), SV method I: 5.2474e+12 M⁻¹ s⁻¹
- LWB method KLB: 18846 M⁻¹
- P (DNA), ratio of fluorescence quantum efficiency: 0.2000
- n (DNA), SV method II: 1.168
- ∆Gb° (DNA), SV method II: −26.835 kJM^−1

SMILES: [O-]c1ccccc1N=Cc1ccc(N2CCOCC2)cc1.[O-]c1ccccc1N=Cc1ccc(N2CCOCC2)cc1.[Zn+2].c1ccc(-c2ccccn2)nc1 [(2a), [Zn(L)2(bpy)]]
- Scatchard analysis KSA: 30190 M⁻¹
- Scatchard analysis n: 0.971
- Kass (DNA), SV method II: 17368 M⁻¹
- KSV (DNA), SV method I: 32694 M⁻¹
- Kapp: 6.569e+06 M⁻¹
- Kq (DNA), SV method I: 3.2694e+12 M⁻¹ s⁻¹
- LWB method KLB: 15630 M⁻¹
- P (DNA), ratio of fluorescence quantum efficiency: 0.1832
- n (DNA), SV method II: 1.055
- ∆Gb° (DNA), SV method II: −24.187 kJM^−1

SMILES: Oc1ccccc1N=Cc1ccc(N2CCOCC2)cc1 [(HL), 2-(4-morpholinobenzylideneamino)phenol]
- Scatchard analysis KSA: 23194 M⁻¹
- Scatchard analysis n: 1.096
- Kass (DNA), SV method II: 9606 M⁻¹
- KSV (DNA), SV method I: 11636 M⁻¹
- Kapp: 5.829e+06 M⁻¹
- Kq (DNA), SV method I: 1.1636e+12 M⁻¹ s⁻¹
- LWB method KLB: 6985 M⁻¹
- P (DNA), ratio of fluorescence quantum efficiency: 0.0900
- n (DNA), SV method II: 0.973
- ∆Gb° (DNA), SV method II: −22.720 kJM^−1
